Reference: ChEMBL document CHEMBL1201862, “PubChem BioAssay data set” (2004)
Several values for one entry are separate records, joined by “and”; a condition that tells them apart may be missing. Equal entries are not always repeated.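 Test compounds were applied to cells in 96-well plates for 48 hours at 5 doses. Here, GI50 denotes the concentration required for 50% inhibition of growth.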 Activity calls are given as the source filed them. No stated cut-off is given here; in the data, active = GI50 up to about 1.1 µM and inactive = higher.

Experiments:
Assay in all cases: inhibition of tumour cell growth, NCI panel, 48 h
[1] = system: HCC 2998
[2] = system: HL-60
[3] = system: HOP-92
[4] = system: HT-29
[5] = system: Hs-578T
[6] = system: MCF7
[7] = system: MDA-MB-435
[8] = system: NCI/ADR-RES
[9] = system: OVCAR-3
[10] = system: OVCAR-8
[11] = system: SF-268
[12] = system: SF-295
[13] = system: SF-539
[14] = system: SK-MEL-5
[15] = system: SK-OV-3
[16] = system: SNB-75
[17] = system: SR
[18] = system: SW-620
[19] = system: T47D
[20] = system: U-251

Row | SMILES | GI50 [1] | GI50 [2] | GI50 [3] | GI50 [4] | GI50 [5] | GI50 [6] | GI50 [7] | GI50 [8] | GI50 [9] | GI50 [10] | GI50 [11] | GI50 [12] | GI50 [13] | GI50 [14] | GI50 [15] | GI50 [16] | GI50 [17] | GI50 [18] | GI50 [19] | GI50 [20]
1 | NNC(=S)N/N=C(/C(=O)Nc1ccc(Cl)c(Cl)c1)C(C1OC(=O)c2ccccc21)[N+](=O)[O-] (stereo not given) | > 100 µM (inactive) | 19.9 µM (inactive) | 86.9 µM (inactive) | > 100 µM (inactive) | > 100 µM (inactive) | > 100 µM (inactive) | > 100 µM (inactive) | > 100 µM (inactive) | > 100 µM (inactive) | > 100 µM (inactive) | > 100 µM (inactive) | > 100 µM (inactive) | > 100 µM (inactive) | > 100 µM (inactive) | > 100 µM (inactive) | > 100 µM (inactive) | > 10 µM (inactive) | > 100 µM (inactive) | > 100 µM (inactive) | > 100 µM (inactive)
2 | Cn1cc2c3ccccc3nc-2c2ccccc21 [ISOCRYPTOLEPINE] | 1.6 µM (inactive) | 2.04 µM (inactive) | 1.91 µM (inactive) | 1.29 µM (inactive) | 2.3 µM (inactive) | 2.67 µM (inactive) | 2.39 µM (inactive) | 1.72 µM (inactive) | 2.36 µM (inactive) | 1.6 µM (inactive) | 2.33 µM (inactive) | 2.78 µM (inactive) | 1.72 µM (inactive) | 1.7 µM (inactive) | 1.99 µM (inactive) | 1.8 µM (inactive) | 0.397 µM (active) | 1.12 µM (inactive) | 2.07 µM (inactive) | 2.42 µM (inactive)
3 | O=C1O/C(=C\c2ccc(O)c(Br)c2)C(c2ccc(O)cc2)=C1Cl | 39.1 µM (inactive) | 43.6 µM (inactive) | 37.4 µM (inactive) | 51.9 µM (inactive) | 37.1 µM (inactive) | 19.2 µM (inactive) | 33.3 µM (inactive) | 29.6 µM (inactive) | 27.2 µM (inactive) | 42.5 µM (inactive) | 27.7 µM (inactive) | 40.5 µM (inactive) | 40.6 µM (inactive) | 22.4 µM (inactive) | > 100 µM (inactive) | 53.3 µM (inactive) | 35.1 µM (inactive) | 38.2 µM (inactive) | 58.3 µM (inactive) | 44.8 µM (inactive)
4 | O=C1C(N2CCN(c3ccccn3)CC2)=C(Cl)C(=O)c2ncccc21 | > 4.63 µM (inactive) | 0.105 µM (active) | 1.58 µM (inactive) | 2.88 µM (inactive) | > 4.49 µM (inactive) | 1.76 µM (inactive) | > 3.74 µM (inactive) | 5.22 µM (inactive) | 1.89 µM (inactive) | > 4.45 µM (inactive) | > 6.1 µM (inactive) | > 10 µM (inactive) | > 10 µM (inactive) | 1.79 µM (inactive) | > 10 µM (inactive) | > 10 µM (inactive) | 2.28 µM (inactive) | 1.23 µM (inactive) | 2.06 µM (inactive) | > 10 µM (inactive)
5 | COC1OC(C(=O)CP(=O)(OC)OC)C(OCc2ccccc2)C(OCc2ccccc2)C1OCc1ccccc1 (stereo not given) | 16.2 µM (inactive) and 17.3 µM (inactive) | 21.8 µM (inactive) and 18.7 µM (inactive) | 17.9 µM (inactive) and 19.1 µM (inactive) | 17.2 µM (inactive) and 16 µM (inactive) | 25.6 µM (inactive) and 22.1 µM (inactive) | 16.4 µM (inactive) | 18.7 µM (inactive) and 17 µM (inactive) | 18.9 µM (inactive) and 16.4 µM (inactive) | 15.6 µM (inactive) and 15.1 µM (inactive) | 19.8 µM (inactive) and 17.9 µM (inactive) | 16.9 µM (inactive) and 17.7 µM (inactive) | 16.5 µM (inactive) and 14.5 µM (inactive) | 17.3 µM (inactive) and 16.9 µM (inactive) | 14.8 µM (inactive) and 15 µM (inactive) | 18.1 µM (inactive) and 17.9 µM (inactive) | 14.6 µM (inactive) and 16 µM (inactive) | 16.4 µM (inactive) and 25.4 µM (inactive) | 20.7 µM (inactive) and 34.3 µM (inactive) | 18 µM (inactive) and 15.5 µM (inactive) | 16.7 µM (inactive) and 15.6 µM (inactive)
6 | CO[C@@H]1C[C@H](OC(N)=O)[C@@H]2C=C[C@@H]3/C=C(C)/C=C/[C@@H](C)[C@H]([C@H](C)[C@H](O)[C@@H](C)NC(C)=O)OC(=O)/C=C/C=C(C)\C=C\[C@]3(C)[C@@H]2C1 | < 0.01 µM (active) | < 0.01 µM (active) | < 0.01 µM (active) | < 0.01 µM (active) | < 0.01 µM (active) | < 0.01 µM (active) | < 0.01 µM (active) | < 0.01 µM (active) | < 0.0436 µM (active) | 0.22 µM (active) | 0.767 µM (active) | < 0.01 µM (active) | < 0.01 µM (active) | < 0.01 µM (active) | < 0.0504 µM (active) | < 0.01 µM (active) | < 0.01 µM (active) | < 0.01 µM (active) | < 0.01 µM (active) | < 0.01 µM (active)
7 | CC(/C=C/C=C\C=C\C=C(/C)C(=O)NC(C)CO)=C\C(C)C(O)/C(C)=C/C(C)CCc1ccccc1 (stereo not given) | 7.59 µM (inactive) | 5.02 µM (inactive) | 5.41 µM (inactive) | 11.6 µM (inactive) | 19.3 µM (inactive) | 1.84 µM (inactive) | 12.8 µM (inactive) | 15.6 µM (inactive) | 1.4 µM (inactive) | 6.82 µM (inactive) | 13.5 µM (inactive) | 0.0236 µM (active) | 14.1 µM (inactive) | 0.198 µM (active) | 16.4 µM (inactive) | 13 µM (inactive) | 1.14 µM (inactive) | 13.6 µM (inactive) | 3.61 µM (inactive) | 14.9 µM (inactive)
8 | COc1ccccc1NC(=O)CC(=O)n1nc(C)c(/N=N/c2ccccc2Cl)c1C | > 100 µM (inactive) | > 95.5 µM (inactive) | > 93.8 µM (inactive) | > 100 µM (inactive) | > 100 µM (inactive) | > 100 µM (inactive) | > 100 µM (inactive) | > 100 µM (inactive) | > 100 µM (inactive) | > 100 µM (inactive) | > 76 µM (inactive) | 83.4 µM (inactive) | 56.1 µM (inactive) | > 100 µM (inactive) | 48.3 µM (inactive) | 25.5 µM (inactive) | > 72.4 µM (inactive) | > 100 µM (inactive) | > 100 µM (inactive) | 27.8 µM (inactive)
9 | C[C@@H]1OCC(O)C([C@H]2OC(c3ccccc3)=N[C@H]2CO)O1 (stereo not given in full) | > 100 µM (inactive) | > 100 µM (inactive) | > 100 µM (inactive) | > 100 µM (inactive) | > 100 µM (inactive) | > 100 µM (inactive) | > 100 µM (inactive) | > 100 µM (inactive) | > 100 µM (inactive) | > 100 µM (inactive) | > 100 µM (inactive) | > 100 µM (inactive) | > 100 µM (inactive) | > 100 µM (inactive) | > 100 µM (inactive) | 72.1 µM (inactive) | > 100 µM (inactive) | > 100 µM (inactive) | > 100 µM (inactive) | > 100 µM (inactive)
10 | CC[P+]1(c2ccccc2)[C@@H](C)CC[C@@H]1C | > 100 µM (inactive) | > 100 µM (inactive) | 39.1 µM (inactive) | > 100 µM (inactive) | > 100 µM (inactive) | > 100 µM (inactive) | > 100 µM (inactive) | > 100 µM (inactive) | 84.1 µM (inactive) | > 100 µM (inactive) | > 100 µM (inactive) | > 100 µM (inactive) | > 100 µM (inactive) | 65.2 µM (inactive) | > 100 µM (inactive) | > 100 µM (inactive) | > 100 µM (inactive) | > 100 µM (inactive) | > 100 µM (inactive) | 40.5 µM (inactive)
11 | CCOC(=O)c1cc2c([nH]1)c(OC(C)=O)cc1c2ccn1Cc1ccccc1 | > 100 µM (inactive) | > 100 µM (inactive) | > 100 µM (inactive) | > 100 µM (inactive) | > 100 µM (inactive) | > 100 µM (inactive) | > 100 µM (inactive) | > 100 µM (inactive) | > 100 µM (inactive) | > 100 µM (inactive) | > 100 µM (inactive) | > 100 µM (inactive) | > 100 µM (inactive) | > 100 µM (inactive) | > 100 µM (inactive) | > 100 µM (inactive) | > 100 µM (inactive) | > 100 µM (inactive) | > 100 µM (inactive) | > 100 µM (inactive)
12 | CC(C)=CC1CC(C)C2(CCC3(C)CC4C(C(=O)CC4(C)O)/C(C=O)=C\CC32)O1 (stereo not given) | 0.178 µM (active) | < 0.0173 µM (active) | 0.0703 µM (active) | 0.0312 µM (active) | 0.13 µM (active) | 0.0675 µM (active) | 0.0617 µM (active) | 0.11 µM (active) | 0.0224 µM (active) | 0.0432 µM (active) | 0.136 µM (active) | 0.191 µM (active) | 0.0933 µM (active) | 0.216 µM (active) | 0.148 µM (active) | 0.142 µM (active) | 0.03 µM (active) | 0.0205 µM (active) | 0.0574 µM (active) | 0.0735 µM (active)
13 | COc1cc2c(c3oc4c(O)cccc4c(=O)c13)CC(C(C)(O)CCl)O2 (stereo not given) | 1.32 µM (inactive) | 0.115 µM (active) | 2.45 µM (inactive) | 0.0476 µM (active) | 2.03 µM (inactive) | 0.0254 µM (active) | 0.13 µM (active) | 0.679 µM (active) | 1.21 µM (inactive) | 0.219 µM (active) | 0.0728 µM (active) | 1.92 µM (inactive) | 0.443 µM (active) | 0.279 µM (active) | 4.35 µM (inactive) | 3.35 µM (inactive) | < 0.0338 µM (active) | 0.0277 µM (active) | 2.8 µM (inactive) | 1.98 µM (inactive)
